Measured values from ChEMBL document CHEMBL4433228, “Identification and immunological evaluation of novel TLR2 agonists through structure optimization of Pam3CSK4” (Bioorg Med Chem, 2019).
The source made the active and inactive calls. The rule behind the calls is not given here. Residues, ends and D or L forms follow the SMILES beside them. *: point of attachment. Propyl(2R-PamO,3-PamO) = CCCCCCCCCCCCCCCC(=O)OC[C@H](C*)OC(=O)CCCCCCCCCCCCCCC; Palmitoyl = CCCCCCCCCCCCCCCC(=O)*

Columns and labels:
BMDM [1] = test: Effect on IL-6 production in TLR2-/- mouse BMDM cells at 0.1 to 1 uM incubated for 24 hrs by ELISA; type: functional, cell-based
[2] = target: Toll-like receptor 1/2 (Homo sapiens) (UniProt O60603+Q15399); test: Agonist activity at TLR2/1 in PMA-differentiated human THP-1 cells assessed as induction of IL-6 production at 2.5 uM incubated for 24 hrs after preincubation with anti-hTLR2-IGA for 2 hrs by ELISA; type: cell-based
[3] = target: Toll-like receptor 2 (Mus musculus) (UniProt Q9QUN7); test: Agonist activity at TLR2 in wild type mouse BMDM cells assessed as induction of NFkappaB pathway activation by measuring increase in IL-6 mRNA expression by qRT-PCR analysis; type: cell-based
BMDM [4] = test: Effect on TNFalpha production in TLR2-/- mouse BMDM cells at 0.1 to 1 uM incubated for 24 hrs by ELISA; type: functional, cell-based
[5] = target: Toll-like receptor 2 (Mus musculus) (UniProt Q9QUN7); test: Agonist activity at TLR2 in mouse BV2 cells assessed as increase in IL-6 secretion at 1 uM incubated for 24 hrs in presence of NF-kappaB inhibitor triptolide by ELISA; type: cell-based
[6] = target: Toll-like receptor 2 (Mus musculus) (UniProt Q9QUN7); test: Activation of TLR2 in wild type mouse BMDM cells assessed as stimulation of IL-12 production at 0.1 to 1 uM incubated for 24 hrs by ELISA; type: cell-based
[7] = target: Toll-like receptor 2 (Mus musculus) (UniProt Q9QUN7); test: Agonist activity at TLR2 in mouse dendritic cells assessed as upregulation CD80 expression at 100 ng/ml by flow cytometry; type: cell-based
[8] = target: Toll-like receptor 2 (Mus musculus) (UniProt Q9QUN7); test: Activation of TLR2 in wild type mouse BMDM cells assessed as stimulation of TNFalpha production at 0.1 to 1 uM incubated for 24 hrs by ELISA; type: cell-based
[9] = target: Toll-like receptor 2 (Mus musculus) (UniProt Q9QUN7); test: Activation of TLR2 in wild type mouse BMDM cells assessed as stimulation of IL-6 production at 0.1 to 1 uM incubated for 24 hrs by ELISA; type: cell-based
[10] = target: Toll-like receptor 2 (Mus musculus) (UniProt Q9QUN7); test: Agonist activity at TLR2 in mouse BV2 cells assessed as increase in IL-6 secretion at 2 uM incubated for 24 hrs by ELISA; type: cell-based
THP-1 [11] = test: Agonist activity at TLR2/1 in PMA-differentiated human THP-1 cells assessed as induction of IL-6 production at 2.5 uM incubated for 24 hrs after preincubation with anti-hTLR1-IGG for 2 hrs by ELISA; type: cell-based
TLR2/TLR6 (Homo sapiens) [12] = target: T1, TLR2/TLR6 (Homo sapiens) (UniProt O60603+Q9Y2C9); test: Agonist activity at TLR2/6 in PMA-differentiated human THP-1 cells assessed as induction of IL-6 production at 2.5 uM incubated for 24 hrs after preincubation with anti-hTLR6-IGG for 2 hrs by ELISA; type: cell-based
TLR2/TLR6 (Homo sapiens) [13] = target: T1, TLR2/TLR6 (Homo sapiens); test: Agonist activity at TLR2/6 in PMA-differentiated human THP-1 cells assessed as induction of IL-6 production at 2.5 uM incubated for 24 hrs after preincubation with […] for 2 hrs by ELISA; type: cell-based
[14] = target: Toll-like receptor 1/2 (Mus musculus) (UniProt Q9QUN7+Q9EPQ1); test: Agonist activity at TLR2/1 in mouse BV2 cells assessed as induction of IL-6 production at 2 uM incubated for 24 hrs in presence of TLR2/1 inhibitor CU-CPT22 by ELISA; type: cell-based
[15] = (§1) Effect on IL-6 mRNA expression in TLR2-/- mouse BMDM cells at 0.1 to 1 uM by qRT-PCR analysis; type: ADME, cell-based
BMDM [16] = test: Effect on IL-12 production in TLR2-/- mouse BMDM cells at 0.1 to 1 uM incubated for 24 hrs by ELISA; type: functional, cell-based
[17] = as §1; type: ADME, cell-based; remark: listed apart in the source
BV-2 [18] = test: Cytotoxicity against mouse BV2 cells assessed as cell viability up to 5 uM incubated for 24 hrs by CCK-8 assay; type: cell-based; conditions: bv-2, 24 h
[19] = target: Toll-like receptor 2 (Homo sapiens) (UniProt O60603); test: Agonist activity at human TLR2 in PMA-differentiated THP-1 cells assessed as induction of IL-6 production at 0.5 to 2.5 uM incubated for 24 hrs by ELISA; type: cell-based
[20] = target: Toll-like receptor 2 (Mus musculus) (UniProt Q9QUN7); test: Agonist activity at TLR2 in mouse dendritic cells assessed as upregulation MHC class 2 expression at 100 ng/ml by flow cytometry; type: cell-based
[21] = target: Toll-like receptor 2 (Mus musculus) (UniProt Q9QUN7); test: Agonist activity at TLR2 in mouse dendritic cells assessed as upregulation CD86 expression at 100 ng/ml by flow cytometry; type: cell-based
[22] = target: Toll-like receptor 2 (Mus musculus) (UniProt Q9QUN7); test: Agonist activity at TLR2 in mouse BV2 cells assessed as stimulation of NFkappaB pathway by measuring increase in IkappaBalpha phosphorylation incubated for 12 hrs by Western blot analysis; type: cell-based
[23] = target: Toll-like receptor 2 (Mus musculus) (UniProt Q9QUN7); test: Agonist activity at TLR2 in mouse RAW264.7 cells assessed as induction of IL-6 production incubated for 24 hrs by ELISA; type: cell-based
THP-1 [24] = test: Cytotoxicity against human THP1 cells assessed as cell viability up to 5 uM incubated for 24 hrs by CCK-8 assay; type: cell-based; conditions: thp-1, 24 h
Dendritic cell [25] = test: Effect on MHC class 2 expression in TLR2-/- mouse dendritic cells at 100 ng/ml by flow cytometry; type: ADME, cell-based
[26] = Effect on TNFalpha mRNA expression in TLR2-/- mouse BMDM cells at 0.1 to 1 uM by qRT-PCR analysis; type: ADME, cell-based
Toll-like receptor 2 = Toll-like receptor 2 (Mus musculus, UniProt Q9QUN7); test: Agonist activity at TLR2 in wild type mouse BMDM cells assessed as induction of NFkappaB pathway activation by measuring increase in TNF-alpha mRNA expression by qRT-PCR analysis; type: cell-based
Dendritic cell [27] = test: Effect on CD80 expression in TLR2-/- mouse dendritic cells at 100 ng/ml by flow cytometry; type: ADME, cell-based
Dendritic cell [28] = test: Effect on CD86 expression in TLR2-/- mouse dendritic cells at 100 ng/ml by flow cytometry; type: ADME, cell-based
BV-2 [29] = test: Effect on IkappaBalpha protein expression in mouse BV2 cells at 0.2 to 2 uM incubated for 12 hrs by Western blot analysis; type: ADME, cell-based; conditions: bv-2, 12 h

Sequence of Toll-like receptor 2 (Mus musculus) (Q9QUN7 whole entry): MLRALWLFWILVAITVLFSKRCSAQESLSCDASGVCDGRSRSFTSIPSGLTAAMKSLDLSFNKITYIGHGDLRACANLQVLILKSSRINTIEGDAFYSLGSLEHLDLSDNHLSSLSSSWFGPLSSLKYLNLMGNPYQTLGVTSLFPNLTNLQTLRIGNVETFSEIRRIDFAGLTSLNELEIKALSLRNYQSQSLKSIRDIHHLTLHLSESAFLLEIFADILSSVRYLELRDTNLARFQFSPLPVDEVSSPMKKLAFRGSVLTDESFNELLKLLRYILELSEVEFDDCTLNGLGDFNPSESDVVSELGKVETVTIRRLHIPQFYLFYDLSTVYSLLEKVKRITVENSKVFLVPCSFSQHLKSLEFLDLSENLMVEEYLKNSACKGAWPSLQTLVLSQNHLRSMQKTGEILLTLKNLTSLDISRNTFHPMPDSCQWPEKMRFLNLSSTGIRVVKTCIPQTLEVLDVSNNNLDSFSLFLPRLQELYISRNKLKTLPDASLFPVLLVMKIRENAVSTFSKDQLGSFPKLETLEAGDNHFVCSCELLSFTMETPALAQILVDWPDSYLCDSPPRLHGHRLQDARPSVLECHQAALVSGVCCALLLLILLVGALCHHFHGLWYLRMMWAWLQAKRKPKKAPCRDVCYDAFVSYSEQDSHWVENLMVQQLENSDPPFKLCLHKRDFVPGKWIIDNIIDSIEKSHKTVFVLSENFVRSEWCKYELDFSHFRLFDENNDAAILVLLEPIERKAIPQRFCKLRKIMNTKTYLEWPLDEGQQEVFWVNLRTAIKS
Sequence of Toll-like receptor 2 (Q9QUN7 whole entry): as above
Sequence of Toll-like receptor 2 (Homo sapiens) (O60603 whole entry): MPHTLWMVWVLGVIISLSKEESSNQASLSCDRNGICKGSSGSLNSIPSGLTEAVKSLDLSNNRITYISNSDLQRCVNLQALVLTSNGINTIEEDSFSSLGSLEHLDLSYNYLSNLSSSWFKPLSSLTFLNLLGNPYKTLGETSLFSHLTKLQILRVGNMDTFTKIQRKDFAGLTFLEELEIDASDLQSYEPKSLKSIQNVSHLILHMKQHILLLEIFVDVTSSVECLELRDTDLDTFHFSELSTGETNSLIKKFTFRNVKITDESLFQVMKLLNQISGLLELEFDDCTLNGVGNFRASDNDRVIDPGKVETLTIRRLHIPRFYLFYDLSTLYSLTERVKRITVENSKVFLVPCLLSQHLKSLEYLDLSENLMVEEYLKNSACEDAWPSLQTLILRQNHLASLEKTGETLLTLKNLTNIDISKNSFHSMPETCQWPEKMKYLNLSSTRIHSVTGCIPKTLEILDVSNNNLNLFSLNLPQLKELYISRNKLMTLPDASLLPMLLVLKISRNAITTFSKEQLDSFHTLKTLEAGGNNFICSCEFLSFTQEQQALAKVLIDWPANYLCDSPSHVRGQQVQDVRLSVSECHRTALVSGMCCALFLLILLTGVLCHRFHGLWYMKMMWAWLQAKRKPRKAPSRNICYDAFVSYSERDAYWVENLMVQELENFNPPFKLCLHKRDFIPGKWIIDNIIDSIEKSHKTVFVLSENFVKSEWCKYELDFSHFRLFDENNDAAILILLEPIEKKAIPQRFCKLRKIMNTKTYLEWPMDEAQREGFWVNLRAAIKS

## CCCCCCCCCCCCCCCCNC(=O)NCCSC[C@H](NC(=O)CCCCCCCCCCCCCCC)C(=O)N[C@H](CO)C(=O)N[C@@H](CCCCN)C(=O)N[C@@H](CCCCN)C(=O)N[C@@H](CCCCN)C(=O)N[C@@H](CCCCN)C(=O)O
BMDM [1]
  Activity: inactive
[2]
  Activity: inactive

## CCCCCCCCCCCCCCCC(=O)N[C@@H](CSCCNC(=O)OCCCCCCCCCCCCCC)C(=O)N[C@H](CO)C(=O)N[C@@H](CCCCN)C(=O)N[C@@H](CCCCN)C(=O)N[C@@H](CCCCN)C(=O)N[C@@H](CCCCN)C(=O)O
BMDM [1]
  Activity: Active
[3]
  Activity: Dose-dependent effect
BMDM [4]
  Activity: inactive
[5]
  Activity: inactive
[6]
  Activity: Active
[7]
  Activity: Dose-dependent effect
[8]
  Activity: Active
[2]
  Activity: inactive
[9]
  Activity: inactive

## CCCCCCCCCCCCCCCCOC(=O)NCCSC[C@H](NC(=O)CCCCCCCCCCCCCCC)C(=O)N[C@H](CO)C(=O)N[C@@H](CCCCN)C(=O)N[C@@H](CCCCN)C(=O)N[C@@H](CCCCN)C(=O)O
BMDM [1]
  Activity: Active
[10]
  Activity: Active
[2]
  Activity: Active

## CCCCCCCCCCCCCCCC(=O)N[C@@H](CSCCOC(=O)CCCCCCCCCCCCCCC)C(=O)N[C@H](CO)C(=O)N[C@@H](CCCCN)C(=O)N[C@@H](CCCCN)C(=O)N[C@@H](CCCCN)C(=O)N[C@@H](CCCCN)C(=O)O
THP-1 [11]
  Activity: inactive
BMDM [1]
  Activity: Dose-dependent effect
[3]
  Activity: Dose-dependent effect
BMDM [4]
  Activity: inactive
[5]
  Activity: inactive
[6]
  Activity: Active
TLR2/TLR6 (Homo sapiens) [12]
  Activity: inactive
[7]
  Activity: Dose-dependent effect
[8]
  Activity: Active
[10]
  Activity: Active
[2]
  Activity: Active
[9]
  Activity: inactive

## CCCCCCCCCCCCCCCCOC(=O)NCCSC[C@H](NC(=O)NCCCCCCCCCCCCCC)C(=O)N[C@H](CO)C(=O)N[C@@H](CCCCN)C(=O)N[C@@H](CCCCN)C(=O)N[C@@H](CCCCN)C(=O)N[C@@H](CCCCN)C(=O)O
TLR2/TLR6 (Homo sapiens) [13]
  Activity: inactive
BMDM [1]
  Activity: inactive
[14]
  Activity: inactive
[10]
  Activity: Active

## CCCCCCCCCCCCCCCC(=O)NCCSC[C@H](NC(=O)CCCCCCCCCCCCCCC)C(=O)N[C@H](CO)C(=O)N[C@@H](CCCCN)C(=O)N[C@@H](CCCCN)C(=O)N[C@@H](CCCCN)C(=O)N[C@@H](CCCCN)C(=O)O
BMDM [1]
  Activity: inactive
[2]
  Activity: inactive

## CCCCCCCCCCCCCCCC(=O)N[C@@H](CSC[C@@H](COC(=O)CCCCCCCCCCCCCCC)OC(=O)CCCCCCCCCCCCCCC)C(=O)N[C@@H](CO)C(=O)N[C@@H](CCCCN)C(=O)N[C@@H](CCCCN)C(=O)N[C@@H](CCCCN)C(=O)N[C@@H](CCCCN)C(=O)O (Palmitoyl-C(Propyl(2R-PamO,3-PamO))SKKKK-OH)
THP-1 [11]
  Activity: inactive
[3]
  Activity: Dose-dependent effect
TLR2/TLR6 (Homo sapiens) [12]
  Activity: inactive
[7]
  Activity: Dose-dependent effect
[15]
  Activity: Non-Toxic
BMDM [16]
  Activity: Active
[17]
  Activity: Non-Toxic

## CCCCCCCCCCCCCCCCOC(=O)NCCSC[C@H](NC(=O)CCCCCCCCCCCCCCC)C(=O)N[C@@H](CO)C(=O)N[C@@H](CCCCN)C(=O)N[C@@H](CCCCN)C(=O)N[C@@H](CCCCN)C(=O)O
BV-2 [18]
  Activity: Non-Toxic

## CCCCCCCCCCCCCCCCOC(=O)NCCSC[C@H](NC(=O)NCCCCCCCCCCCCCC)C(=O)N[C@@H](CO)C(=O)N[C@@H](CCCCN)C(=O)N[C@@H](CCCCN)C(=O)N[C@@H](CCCCN)C(=O)N[C@@H](CCCCN)C(=O)O
BV-2 [18]
  Activity: Non-Toxic

## CCCCCCCCCCCCCCCCOC(=O)NCCSC[C@H](NC(=O)CCCCCCCCCCCCCCC)C(=O)N[C@H](CO)C(=O)N[C@@H](CCCCN)C(=O)N[C@@H](CCCCN)C(=O)N[C@@H](CCCCN)C(=O)N[C@@H](CCCCN)C(=O)O
[19]
  Activity: Active
[20]
  Activity: Active
[21]
  Activity: Active
THP-1 [11]
  Activity: inactive
BMDM [1]
  Activity: Active
[3]
  Activity: Dose-dependent effect
BMDM [4]
  Activity: inactive
[5]
  Activity: inactive
[6]
  Activity: Active
TLR2/TLR6 (Homo sapiens) [12]
  Activity: inactive
[22]
  Activity: inactive
[7]
  Activity: Dose-dependent effect
[8]
  Activity: Active
[10]
  Activity: Active
[23]
  Activity: Dose-dependent effect
[2]
  Activity: Active
[9]
  Activity: inactive

## CCCCCCCCCCCCCCCCOC(=O)NCCSC[C@H](NC(=O)CCCCCCCCCCCCCCC)C(=O)N[C@@H](CO)C(=O)N[C@@H](CCCCN)C(=O)N[C@@H](CCCCN)C(=O)N[C@@H](CCCCN)C(=O)N[C@@H](CCCCN)C(=O)O
THP-1 [24]
  Activity: Non-Toxic
Dendritic cell [25]
  Activity: Non-Toxic
BV-2 [18]
  Activity: Non-Toxic
[26]
  Activity: Non-Toxic
Toll-like receptor 2
  EC50: 83.1 nM
Dendritic cell [27]
  Activity: Active
[15]
  Activity: Non-Toxic
Dendritic cell [28]
  Activity: Non-Toxic
BV-2 [29]
  Activity: Active
[17]
  Activity: Non-Toxic

## CCCCCCCCCCCCCCCC(=O)N[C@@H](CSCCNC(=O)OCCCCCCCCCCCCCC)C(=O)N[C@@H](CO)C(=O)N[C@@H](CCCCN)C(=O)N[C@@H](CCCCN)C(=O)N[C@@H](CCCCN)C(=O)N[C@@H](CCCCN)C(=O)O
[15]
  Activity: Non-Toxic
BV-2 [29]
  Activity: Active
[17]
  Activity: Non-Toxic

## CCCCCCCCCCCCCCCC(=O)N[C@@H](CSCCOC(=O)CCCCCCCCCCCCCCC)C(=O)N[C@@H](CO)C(=O)N[C@@H](CCCCN)C(=O)N[C@@H](CCCCN)C(=O)N[C@@H](CCCCN)C(=O)N[C@@H](CCCCN)C(=O)O
BV-2 [18]
  Activity: Non-Toxic
[15]
  Activity: Non-Toxic
BV-2 [29]
  Activity: Active
[17]
  Activity: Non-Toxic
